Measurements reported in publication PMC11555231 (Nature Communications, 2024).
Bridge positions count the residues as written; N and C are the ends. Square brackets hold non-standard residues; d marks the D form. Peptide text beside a SMILES is read from it.

What was measured:
[1] = test system: hPADI4 expressing mES cells; assay: Cytotoxicity by live cell imaging with Incucyte Cytotox Green Dye
Experimental: Live cell imaging was performed using an Incucyte® imaging system (Sartorius), using Incucyte® Cytotox Green Dye as per the manufacturer’s instructions.
E. Assessment of cytotoxicity by live cell imaging with Incucyte® Cytotox
Green Dye, as a measure for cell death. hPADI4 expressing mES cells treated with 1 µM
Assessment of cytotoxicity by live cell imaging with Incucyte® Cytotox Green Dye, as a read-
vehicle (0.1%), and imaged for 48 h.

HaLo-GFP-mito HeLa cells = assay: Chloroalkane penetration assay (CAPA); assay type: in vitro ADME; details: for CP50: 4 h in Opti-MEM, 37 °C, chase HaLo-Tag TMR ligand 5 µM 15 min, mean ± SEM of three independent experiments; for CP50 at 4 °C relative to 37 °C: peer review response
Experimental: Following the addition of chloroacetyl-NHS to the N-terminal amino group, Cys(mmt) was selectively deprotected using 1% TFA, 5% triisopropylsilane in DCM (30 min, RT). Peptides were then cyclised on resin using 2% diisopropylethylamine in DMF overnight. Following cyclisation, Lys(ivDde) was deprotected using 2% hydrazine in DMF. The resin was then washed (3 x DCM, 3 x DMF) before on-resin coupling of chloroalkane carboxylic acid was performed on the lysine side chain using Hexafluorophosphate Azabenzotriazole Tetramethyl Uronium / diisopropylethylamine in DMF for 2 h. Global deprotection and purification were then carried out as described above. Chloroalkane carboxylate was synthesised as previously described.
CAPA assays were performed following the protocol published in ref. [51]. In brief, 40,000 HaLo- GFP-mito HeLa cells were seeded in a 96-well plate. Twenty-four hours later, cells were treated with different concentrations of chloroalkane-tagged peptides (100 µM to 200 nM for PADI4_3 and PADI4_3i and 50 µM to 100 nM for PADI4_11 and PADI4_11i) for 4 h in Opti-MEM. Media containing peptides was then removed, and cells were incubated with Opti-MEM (Gibco) for 15 min. After that time, the wash was removed, and cells were chased with HaLo-Tag TMR ligand (5 µM, Promega) in Opti-MEM for 15 min. The ligand was then removed, and cells were incubated with Opti-MEM for 30 min. Cells were then trypsinised, resuspended in phosphate-buffered saline (PBS) with 0.5% FBS and analysed using a benchtop flow cytometer (MACSQuant® VYB Flow cytometer Milteny Biotec). For each well, 10000 GFP positive single cells were analysed (gating workflow shown in Supplementary Fig. 18), and TMR mean fluorescence was normalised against a positive control (cells treated with HaLo-Tag TMR ligand but no peptide) and a negative control (non-treated cells). Analysis was performed using FlowJo (LCC) software and Prism GraphPad (Dotmatics). Data were presented as the average ± standard error of three independent replicates.

hPADI4 [2] = target: T1, hPADI4 (Homo sapiens, UniProt Q9UM07); assay: COLDER assay, activation of PADI4 (calcium titration at fixed peptide, or peptide titration at 0.1 mM CaCl2); assay type: biochemical; details: 30 µM peptide
T1 construct: PADI4 (residues 1–663); Avi-Tag (unbiotinylated); made in house; host or cells: E. coli BL21(DE3) without BirA
T1 sequence (Q9UM07 whole entry, the tested form may be a part): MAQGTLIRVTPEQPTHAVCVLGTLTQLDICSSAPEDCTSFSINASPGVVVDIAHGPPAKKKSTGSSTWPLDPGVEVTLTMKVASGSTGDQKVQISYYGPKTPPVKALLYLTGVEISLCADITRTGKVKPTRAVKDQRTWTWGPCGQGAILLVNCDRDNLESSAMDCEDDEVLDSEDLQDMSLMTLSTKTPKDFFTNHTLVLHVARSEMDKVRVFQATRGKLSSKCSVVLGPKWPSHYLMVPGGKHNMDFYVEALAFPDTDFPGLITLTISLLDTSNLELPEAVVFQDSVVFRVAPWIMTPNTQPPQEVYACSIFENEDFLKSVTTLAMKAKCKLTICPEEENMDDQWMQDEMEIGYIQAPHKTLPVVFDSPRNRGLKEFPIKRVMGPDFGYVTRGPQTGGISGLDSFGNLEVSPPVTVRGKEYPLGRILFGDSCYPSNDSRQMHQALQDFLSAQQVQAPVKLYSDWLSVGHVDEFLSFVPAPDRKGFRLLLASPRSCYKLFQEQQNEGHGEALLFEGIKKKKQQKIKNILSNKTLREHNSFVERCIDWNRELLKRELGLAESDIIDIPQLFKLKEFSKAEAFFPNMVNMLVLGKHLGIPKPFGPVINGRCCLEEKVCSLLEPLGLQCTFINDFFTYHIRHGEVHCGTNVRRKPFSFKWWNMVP
Experimental: (§1) PADI4 activity was assessed using the COLDER assay[43] that measures the formation of urea-containing compounds (e.g. citrulline). The reaction was carried out in a 96-well plate with a final volume of 50 µl. His-PADI4 (50 nM) was incubated with different concentrations of peptides (100 µM to 0.3 nM) in the presence of CaCl2 (from 10 mM to 0.001 mM as specified) for 10 min. The reaction was started by the addition of 10 mM N^α-Benzoyl-L-arginine ethyl ester hydrochloride (BAEE, Merck). After 30 min, the reaction was quenched with EDTA (50 mM final concentration). For colour development, 200 µl of COLDER solution, consisting of 1 volume of solution A (80 mM diacetyl monoxime/2,3-butanedione monoxime (Merck) and 2 mM thiosemicarbazide (Acros Organics)) and 3 volumes of solution B (3 M H3PO4, 6 M H2SO4 and 2 mM NH4Fe(SO4)2) were added to each well and the mixture was heated at 95 °C for 15 min. After cooling to RT, absorbance at 540 nm was measured, and citrulline concentration was determined using a standard curve of citrulline standards. All studies were performed within the linear range of PADI4 activity, and data analysis was performed using Prism GraphPad (Dotmatics). Data are presented as the average ± standard error of the mean from at least two independent replicates.

hPADI4 [3] = target: T1, hPADI4; assay: COLDER assay, inhibition of PADI4 at 10 mM CaCl2 (substrate BAEE); assay type: biochemical; details: COLDER, 10 mM CaCl2, peptide 10–0.0003 µM
Experimental: as §1

hPADI4-stable mES cells = assay: High content microscopy of citrullinated histone H3 (H3Cit) in hPADI4-stable mES cells; assay type: cell-based, mouse; details: KSR/2i 3 h, Fig. S7B
Experimental: HaLo-GFP-mito HeLa cells were grown in DMEM (Gibco) supplemented with 10% foetal bovine serum (FBS), penicillin/streptomycin (100 µg/ml) and puromycin (1 µg/ml) at 37 °C, 5% CO2. HaLo-GFP-mito HeLa cell line[82] was profiled by short tandem repeat analysis (STR) and tested negative for mycoplasma by the Cell Services Technology Platform at the Francis Crick Institute. E14 –mouse embryonic stem cells (Cambridge Stem Cell Institute, UK) were cultured in plates coated with 1% gelatine in GMEM supplemented with 10% foetal calf serum (FCS) batch-tested for ES cell culture (Gibco), 0.1 mM non-essential amino acids, 2 mM L-glutamine, 1 mM sodium pyruvate, 0.1 mM β-mercaptoethanol and 50 ng/mL leukaemia inhibitory factor (LIF) (ESGRO, Millipore). For PADI4 activation, cells were cultured in GMEM containing 10% knockout serum replacement (KSR, Life Technologies), 1% FCS batch-tested for ES cell culture (Gibco), 0.1 mM non-essential amino acids, L-glutamine, 1 mM sodium pyruvate, 0.1 mM β-mercaptoethanol, 50 ng/mL LIF (ESGRO, Millipore), 1 μM PD0325901 (AxonMedChem) and 3 μM CHIR99021 (AxonMedChem). For the generation of E14 mES stably expressing human PADI4 (hPADI4-stable), human PADI4 cDNA was inserted into ES E14 cells using the piggyBac transposon system. The Gateway system was used to clone human PADI4 into the piggyBac vector using primers PADI4_AttB1_F and PADI4_AttB2_R (Table S4). pPB-CAG-CTRL (empty vector) or pPB-CAG-hPADI4 vectors […] were transfected with the piggyBac transposase (pPBase) expression vector, pCAGPBase […], by lipofection according to the manufacturer’s instructions (Lipofectamine 2000, Invitrogen). E14 cells constitutively expressing the hygromycin resistance gene and human PADI4 were selected and expanded in media containing […] hygromycin.
E14 cells were seeded onto 96-well PerkinElmer cell carrier ultra plates (Phenoplates) coated with 0.1% gelatine, at 25,000 cells per well and grown overnight at 37 °C, 5% CO2. Outer wells were excluded but medium was added to minimise any edge effects. […]

[4] = CAPA, chloroalkane-tagged peptide, 4 °C, flow cytometry, mean ± SEM of two (PADI4_3) or three (PADI4_11) independent experiments
[5] = CAPA, chloroalkane-tagged peptide, flow cytometry

`CC(C)C[C@H](NC(=O)[C@H](CCC(N)=O)NC(=O)[C@H](CC(C)C)NC(=O)[C@@H](NC(=O)[C@H](CCC(N)=O)NC(=O)[C@H](CCCNC(=N)N)NC(=O)[C@H](Cc1ccc(O)cc1)NC(=O)[C@H](CCCNC(=N)N)NC(=O)[C@@H]1CSCC(=O)N[C@@H](Cc2ccc(O)cc2)C(=O)N[C@@H](CCC(=O)O)C(=O)N[C@@H](CO)C(=O)N1)C(C)C)C(N)=O` [PADI4_11] ({CH2CO}-YESCRYRQVLQL-NH2; thioether N-4) was tested, and the “cytotoxicity, live cell imaging of cell death” value ([1]; 25µM peptide, 48 h) was “not toxic to the cells”, the “CP50 at 4 °C” value (HaLo-GFP-mito HeLa cells; [4]) was 10.8 ± 4.7 µM and the CP50 (HaLo-GFP-mito HeLa cells; [5]) was 3.1 ± 1.2 µM. The “CP50 at 4 °C relative to 37 °C” value (HaLo-GFP-mito HeLa cells; CAPA) was 4 times.
`CC[C@H](C)[C@@H]1NC(=O)[C@H](CCCNC(=N)N)NC(=O)[C@H](Cc2ccc(O)cc2)NC(=O)[C@H](Cc2ccccc2)NC(=O)[C@@H](Cc2ccc(O)cc2)NC(=O)CSC[C@@H](C(=O)NCC(N)=O)NC(=O)[C@H](CCC(N)=O)NC(=O)[C@H](Cc2ccc(O)cc2)NC(=O)[C@H](CC(N)=O)NC(=O)[C@@H]2CCCN2C(=O)[C@H](Cc2ccc(O)cc2)NC(=O)[C@H](Cc2c[nH]c3ccccc23)NC(=O)[C@H](Cc2ccccc2)NC(=O)CNC1=O` [PADI4_1] ({CH2CO}-[dY]FYRIGFWYPNYQCG-NH2; thioether N-14) was tested, and the “change in K50(Ca2+) (in words)” value (hPADI4 [2]) was “little change”, the “K50(Ca2+) of PADI4 in presence of peptide” value (hPADI4 [2]; Fig. 4A, COLDER, CaCl2 10–0.003 mM, mean ± SEM of three independent replicates) was 0.359 ± 0.026 mM and the “PADI4 inhibition (in words)” value (hPADI4 [3]) was “No PADI4 inhibition was observed”.
In the case of `NC(=O)[C@H](CCCN=C(N)CCl)NC(=O)c1ccccc1` [Cl-amidine, reference compound], the “mean H3Cit intensity with increasing doses of inhibitor” value (hPADI4-stable mES cells) was “dose-response read-outs”.
For `N=C(N)NCCC[C@@H]1NC(=O)[C@H](Cc2ccc(O)cc2)NC(=O)[C@H](Cc2c[nH]cn2)NC(=O)[C@H](Cc2c[nH]cn2)NC(=O)[C@H](CC(=O)O)NC(=O)[C@H](CCCNC(=N)N)NC(=O)[C@@H](Cc2ccc(O)cc2)NC(=O)CSC[C@@H](C(=O)NCC(N)=O)NC(=O)[C@H](Cc2ccc(O)cc2)NC(=O)[C@H](CCCCN)NC(=O)[C@@H]2CCCN2C(=O)[C@H](Cc2c[nH]cn2)NC1=O` [PADI4_3] ({CH2CO}-[dY]RDHHYRHPKYCG-NH2; thioether N-12), the cytotoxicity ([1]; 1 µM peptide, imaged for 24h) was “No cytotoxicity was observed”, the “CP50 at 4 °C” value (HaLo-GFP-mito HeLa cells; CAPA at 4C, run 220915, in µM (unit assumed)) was 11.21 and the “CP50 at 4 °C” value (HaLo-GFP-mito HeLa cells; CAPA at 4C, run 240501, in µM (unit assumed)) was 8.235. For the same molecule, the “CP50 at 4 °C” value (HaLo-GFP-mito HeLa cells; [4]) was 9.7 ± 2.1 µM, the CP50 (HaLo-GFP-mito HeLa cells; [5]) was 1.4 ± 0.1 µM and the “CP50 at 4 °C relative to 37 °C” value (HaLo-GFP-mito HeLa cells; CAPA) was 7 times.
